The test addresses telomerase enzyme (Homo sapiens, UniProt O14746). In words: Flash Plate-based telomerase assay. Format: biochemical. Conditions: telomerase inhibition, two hours of incubation. The text has this: The telomerase activity of the compounds of the invention has been evaluated using a Flash Plate-based assay. […] Other methods for determining the inhibitory concentration of a compound of the invention against telomerase can be employed as will be apparent to a person skilled in the art based on the disclosure herein.
Briefly, the assay mixture is costituted by:
telomerase enzyme diluted in a buffer, the composition of which has been selected to maintain the enzyme activity stable along the duration of the assay.
dNTPs, deoxynucleotides 5′-triphosphate.
biotynilated oligo as primer.
increasing concentrations of test compounds/positive control.
After two hours of incubation at […] the telomeric repeats added are evaluated by hybridization in solution with a 3′-labeled short oligonucleotide probe.
The extent of hybridization is then quantitated by transferring the reaction mixture in a streptavidin-coated flash plate, where the binding between biotin and streptavidin occurs.
The telomerase activity is proportional to the radioactivity measured and the inhibitory activity of the compounds is evaluated as IC50 using the Sigma Plot fit program.
With the above-described method, IC50 values of the compounds of the present invention were determined.

As usually defined, the IC50 is the midpoint of a concentration-inhibition curve. Low values mean higher potency, high ones lower potency.

Chain of telomerase enzyme (O14746 whole entry): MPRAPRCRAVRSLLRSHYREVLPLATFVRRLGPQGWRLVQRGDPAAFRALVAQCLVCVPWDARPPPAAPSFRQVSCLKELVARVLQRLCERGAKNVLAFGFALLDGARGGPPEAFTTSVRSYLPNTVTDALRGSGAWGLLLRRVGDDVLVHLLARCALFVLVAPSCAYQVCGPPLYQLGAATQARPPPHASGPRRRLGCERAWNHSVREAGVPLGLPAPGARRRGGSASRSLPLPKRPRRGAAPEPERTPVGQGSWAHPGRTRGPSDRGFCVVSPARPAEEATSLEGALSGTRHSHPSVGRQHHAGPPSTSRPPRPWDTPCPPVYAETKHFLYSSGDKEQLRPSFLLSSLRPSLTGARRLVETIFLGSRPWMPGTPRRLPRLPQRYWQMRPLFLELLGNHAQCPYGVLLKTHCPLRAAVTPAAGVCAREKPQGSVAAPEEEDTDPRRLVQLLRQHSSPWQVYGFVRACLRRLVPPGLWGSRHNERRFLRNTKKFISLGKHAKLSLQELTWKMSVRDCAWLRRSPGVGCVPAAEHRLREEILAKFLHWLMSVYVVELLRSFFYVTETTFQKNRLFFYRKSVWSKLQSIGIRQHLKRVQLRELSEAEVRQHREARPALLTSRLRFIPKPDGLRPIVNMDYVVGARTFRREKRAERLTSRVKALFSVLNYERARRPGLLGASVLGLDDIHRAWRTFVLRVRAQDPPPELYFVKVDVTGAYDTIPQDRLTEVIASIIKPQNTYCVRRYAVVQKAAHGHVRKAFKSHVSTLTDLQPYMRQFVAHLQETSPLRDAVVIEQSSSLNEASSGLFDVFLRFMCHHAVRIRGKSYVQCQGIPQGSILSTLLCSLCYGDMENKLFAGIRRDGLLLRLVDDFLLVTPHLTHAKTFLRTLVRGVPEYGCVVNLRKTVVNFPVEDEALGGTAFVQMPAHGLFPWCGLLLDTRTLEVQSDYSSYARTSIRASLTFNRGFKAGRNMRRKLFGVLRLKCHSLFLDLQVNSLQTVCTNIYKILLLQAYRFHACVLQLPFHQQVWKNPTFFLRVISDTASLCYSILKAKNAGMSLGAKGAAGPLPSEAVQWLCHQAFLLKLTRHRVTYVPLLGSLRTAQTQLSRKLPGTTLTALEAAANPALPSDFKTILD

Regarding `COC(=O)c1ccc(Cn2c(N)nc3ncn(Cc4ccc(C(=O)OC)cc4)c3c2=O)cc1` [compound 13, methyl 4-({2-amino-7-[4-(methoxycarbonyl)benzyl]-6-oxo-6,7-dihydro-1H-purin-1-yl}methyl) benzoate], the half-inhibitory concentration (IC50) amounted to 12.3 µM.

These data come from patent publication US20040138212A1, “Disubstituted 1,7-guanines” (priority 2001, published 2004).
